“And” between values parts separate entries of the source, which are not always exact repeats. Identical values can stand only once.

The values that follow come from paper PMC11237654, “Optimization of quenched fluorescent peptide substrates of SARS-CoV-2 3CL^pro main protease (Mpro) from proteomic identification of P6—P6' active site specificity” (Journal of Virology, 2024).

The target in one experiment is T1, SARS-CoV-2 3CL^pro (Severe acute respiratory syndrome coronavirus 2, UniProt P0DTD1, Q3569A).
Conditions: not given
AAVALM↓SAHHYAYR [P1-Met]: the “^app(kcat/KM)” value stood at 37 M⁻¹ s⁻¹. In the case of AAVALQ↓XAHHYAYR [S], the “^app(kcat/KM)” value was 1,528 M^−1s^−1. With AAVALX↓SAHHYAYR [P1-His], the “^app(kcat/KM)” value came out at 222 M⁻¹ s⁻¹. Take VALQ↓GAHRVALQ↓XAHYR [Leu]: the “cleavage at second (test) site with P1' X” value is “minimal cleavage”.

Staying with this experiment, now noted: pH 6.9.
With AAVALQ↓XAHHYAYR [listing 1 of 7 here], the “^app(kcat/KM)” value is 1,522.0 ± 7.6 M^−1s^−1. Still for that read-out and setting: to AAVALQ↓XAHHYAYR [listing 2 of 7 here] belongs 45.0 ± 0.6 M⁻¹ s⁻¹. The same measure, in the same setting: to AAVALQ↓XAHHYAYR [listing 3 of 7 here] belongs “No cleavage”.

For the substance AAVALQ↓XAHHYAYR [listing 4 of 7 here], the “^app(kcat/KM)” value is “No cleavage”. Still for that read-out and setting: the result for AAVALQ↓XAHHYAYR [listing 5 of 7 here] reads “No cleavage”; that for AAVALQ↓XAHHYAYR [listing 6 of 7 here], “No cleavage”; that for AAVALQ↓XAHHYAYR [listing 7 of 7 here], “No cleavage”.

As for AAVALQ↓XAHHYAYR [C], the “^app(kcat/KM)” value is “No cleavage”.

In the case of AAVALQ↓XAHHYAYR [D], the “^app(kcat/KM)” value is recorded as “No cleavage”.

As to AAVALQ↓XAHHYAYR [E], the “^app(kcat/KM)” value is recorded as “No cleavage”. Regarding AAVALQ↓XAHHYAYR [G], the “^app(kcat/KM)” value is recorded as 1,079.1 ± 12.6 M^−1s^−1.

In the case of AAVALQ↓XAHHYAYR [I], the “^app(kcat/KM)” value was “No cleavage”. As to AAVALQ↓XAHHYAYR [K], the “^app(kcat/KM)” value is recorded as “No cleavage”.

AAVALQ↓XAHHYAYR [M]: the “^app(kcat/KM)” value was found to be 65.8 ± 1.4 M⁻¹ s⁻¹.

As for AAVALQ↓XAHHYAYR [N], the “^app(kcat/KM)” value was determined as 71.8 ± 3.2 M⁻¹ s⁻¹.

As for AAVALQ↓XAHHYAYR [P], the “^app(kcat/KM)” value is listed as “No cleavage”.

AAVALQ↓XAHHYAYR [S]: the “^app(kcat/KM)” value was 1,519.1 ± 6.2 M^−1s^−1. Still for that read-out and setting: to AAVALQ↓XAHHYAYR [T] belongs “No cleavage”; to AAVALQ↓XAHHYAYR [W], “No cleavage”.

Another experiment addresses T1, SARS-CoV-2 3CL^pro. The following applies: pH 6.9.
As for AAVALM↓SAHHYAYR [P1-Met], the “^app(kcat/KM)” value came to 37 M⁻¹ s⁻¹.

For the next experiment, the target named is T1, SARS-CoV-2 3CL^pro.
Conditions: not given
The source holds these as a separate data set.
For Mca-RVALQ↓XAHYK(Dnp)RR [QFS1-A1'], the kcat/KM is 13,131.0 M^−1·s^−1 and 13,131.0 ± 207. Take Mca-RVALQ↓XAHYK(Dnp)RR [QFS1-G1']: the kcat/KM is 4,515.7 M^−1·s^−1 and 4,515.7 ± 248. For the substance Mca-RVALQ↓XAHYK(Dnp)RR [QFS1-S1'], the kcat/KM was 13,696.8 M^−1·s^−1 and 13,696.8 ± 269.
